Reference: ChEMBL document CHEMBL1201862, “PubChem BioAssay data set” (2004)
Activity calls are given as the source filed them.

Key:
HEK293 [1] = test: optical interference in Abeta FP readout, dose response, artefact control for IDE activator project, biochemical, fluorescence polarization (AID 588442); assay type: functional, cell-based; conditions: Homo sapiens
Insulin-degrading enzyme [2] = target: T1, Insulin-degrading enzyme (Homo sapiens, UniProt P14735); test: recombinant IDE activation, cell-free – biochemical, fluorescence polarization, counter-screen for IDE activator project, dose response (AID 588681)
T1 sequence (P14735 whole entry): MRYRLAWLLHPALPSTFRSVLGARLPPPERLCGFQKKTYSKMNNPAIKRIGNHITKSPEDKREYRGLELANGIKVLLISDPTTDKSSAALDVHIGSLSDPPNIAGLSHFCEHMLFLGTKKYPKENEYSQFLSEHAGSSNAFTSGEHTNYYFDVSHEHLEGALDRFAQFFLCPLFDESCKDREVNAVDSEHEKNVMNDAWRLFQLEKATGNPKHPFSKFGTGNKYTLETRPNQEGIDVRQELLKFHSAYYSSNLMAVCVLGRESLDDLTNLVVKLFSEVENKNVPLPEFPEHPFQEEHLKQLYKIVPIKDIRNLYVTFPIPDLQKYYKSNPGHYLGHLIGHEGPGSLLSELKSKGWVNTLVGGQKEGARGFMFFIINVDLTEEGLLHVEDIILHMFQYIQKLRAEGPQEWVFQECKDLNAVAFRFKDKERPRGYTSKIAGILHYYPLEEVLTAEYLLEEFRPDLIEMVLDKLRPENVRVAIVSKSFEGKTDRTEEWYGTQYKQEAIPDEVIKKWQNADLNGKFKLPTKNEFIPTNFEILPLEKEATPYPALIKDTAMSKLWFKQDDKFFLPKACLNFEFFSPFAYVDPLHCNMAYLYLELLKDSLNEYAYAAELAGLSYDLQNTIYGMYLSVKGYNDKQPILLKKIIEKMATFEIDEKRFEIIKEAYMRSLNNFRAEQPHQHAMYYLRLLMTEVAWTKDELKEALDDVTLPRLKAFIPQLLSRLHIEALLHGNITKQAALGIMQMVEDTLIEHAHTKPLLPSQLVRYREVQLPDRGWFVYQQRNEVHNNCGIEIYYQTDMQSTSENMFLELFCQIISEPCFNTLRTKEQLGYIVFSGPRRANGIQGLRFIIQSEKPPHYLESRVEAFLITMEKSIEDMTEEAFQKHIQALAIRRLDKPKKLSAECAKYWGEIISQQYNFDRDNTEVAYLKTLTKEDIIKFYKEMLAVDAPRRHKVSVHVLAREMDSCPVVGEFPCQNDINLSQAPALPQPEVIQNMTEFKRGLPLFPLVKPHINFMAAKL

HEK293 [3] = test: membrane integrity loss in HEK cells – cell-based, fluorescence, cytotoxicity control for IDE activator project, dose response (AID 588440); assay type: functional; conditions: Homo sapiens;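 note: cytotoxicity by LDH release measuring loss of membrane integrity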
Insulin-degrading enzyme [4] = target: T1, Insulin-degrading enzyme; test: cellular IDE activation of Abeta substrate cleavage – fluorescence polarization, HEK cells, dose response (AID 588439); assay type: functional, cell-based
[5] = target: T2, Sentrin-specific protease 7 (Homo sapiens, UniProt Q9BQF6); test: inhibition of human SENP7 cleavage activity – biochemical, luminescence, SAR follow-up (AID 504497); assay type: functional
T2 sequence (Q9BQF6 whole entry): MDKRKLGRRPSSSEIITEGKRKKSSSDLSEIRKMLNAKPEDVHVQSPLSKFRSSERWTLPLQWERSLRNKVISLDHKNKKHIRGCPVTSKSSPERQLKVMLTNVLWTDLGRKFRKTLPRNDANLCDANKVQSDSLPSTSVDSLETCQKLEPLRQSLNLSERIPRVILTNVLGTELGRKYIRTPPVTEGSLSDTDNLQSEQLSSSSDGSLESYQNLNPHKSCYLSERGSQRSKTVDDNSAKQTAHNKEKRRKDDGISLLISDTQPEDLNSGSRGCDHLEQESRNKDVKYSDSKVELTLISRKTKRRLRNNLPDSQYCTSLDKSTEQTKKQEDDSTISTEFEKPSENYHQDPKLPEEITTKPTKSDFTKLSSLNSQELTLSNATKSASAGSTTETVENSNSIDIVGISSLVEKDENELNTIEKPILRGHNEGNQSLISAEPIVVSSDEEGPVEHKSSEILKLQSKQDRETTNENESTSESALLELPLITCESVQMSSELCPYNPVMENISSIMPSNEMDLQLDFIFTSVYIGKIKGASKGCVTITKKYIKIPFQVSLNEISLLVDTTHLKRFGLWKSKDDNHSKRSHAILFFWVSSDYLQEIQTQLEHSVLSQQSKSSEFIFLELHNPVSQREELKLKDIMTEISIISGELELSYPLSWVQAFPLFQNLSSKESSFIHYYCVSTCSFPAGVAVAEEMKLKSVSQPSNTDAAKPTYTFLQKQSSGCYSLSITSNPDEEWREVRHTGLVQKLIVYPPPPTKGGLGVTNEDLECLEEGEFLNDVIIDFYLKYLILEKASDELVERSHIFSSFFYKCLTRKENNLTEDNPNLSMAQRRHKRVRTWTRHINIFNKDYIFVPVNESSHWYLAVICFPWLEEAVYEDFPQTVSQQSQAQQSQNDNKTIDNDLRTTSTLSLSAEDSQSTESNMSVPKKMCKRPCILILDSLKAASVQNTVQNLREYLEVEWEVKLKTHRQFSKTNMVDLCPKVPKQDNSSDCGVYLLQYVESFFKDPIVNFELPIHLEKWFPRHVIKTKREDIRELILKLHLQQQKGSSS

Caspase-3 [6] = target: T3, Caspase-3 (Homo sapiens, UniProt P42574); test: SAR Analysis of small molecule inhibitors of Sentrin-specific proteases (SENPs) using a Caspase-3 Selectivity assay. [Related pubchem assays (depositor defined):AID2540, AID2599, AID434973, AID489001]; assay type: functional
T3 sequence (P42574 whole entry): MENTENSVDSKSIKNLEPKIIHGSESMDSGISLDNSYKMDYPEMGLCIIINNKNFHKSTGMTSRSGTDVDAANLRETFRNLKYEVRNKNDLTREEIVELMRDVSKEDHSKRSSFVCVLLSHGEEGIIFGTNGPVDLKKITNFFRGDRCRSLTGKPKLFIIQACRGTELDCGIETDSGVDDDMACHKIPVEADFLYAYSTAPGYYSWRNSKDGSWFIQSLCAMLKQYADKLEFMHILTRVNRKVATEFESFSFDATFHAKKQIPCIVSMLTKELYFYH

Caspase-3 [7] = target: T3, Caspase-3; assay type: functional
[8] = target: T4, Sentrin-specific protease 6 (Homo sapiens, UniProt Q9GZR1); test: SAR Analysis of small molecule inhibitors of Sentrin-specific protease 6 (SENP6) using a Luminescent assay. [Related pubchem assays (depositor defined):AID2582, AID2599]; assay type: functional
T4 sequence (Q9GZR1 whole entry): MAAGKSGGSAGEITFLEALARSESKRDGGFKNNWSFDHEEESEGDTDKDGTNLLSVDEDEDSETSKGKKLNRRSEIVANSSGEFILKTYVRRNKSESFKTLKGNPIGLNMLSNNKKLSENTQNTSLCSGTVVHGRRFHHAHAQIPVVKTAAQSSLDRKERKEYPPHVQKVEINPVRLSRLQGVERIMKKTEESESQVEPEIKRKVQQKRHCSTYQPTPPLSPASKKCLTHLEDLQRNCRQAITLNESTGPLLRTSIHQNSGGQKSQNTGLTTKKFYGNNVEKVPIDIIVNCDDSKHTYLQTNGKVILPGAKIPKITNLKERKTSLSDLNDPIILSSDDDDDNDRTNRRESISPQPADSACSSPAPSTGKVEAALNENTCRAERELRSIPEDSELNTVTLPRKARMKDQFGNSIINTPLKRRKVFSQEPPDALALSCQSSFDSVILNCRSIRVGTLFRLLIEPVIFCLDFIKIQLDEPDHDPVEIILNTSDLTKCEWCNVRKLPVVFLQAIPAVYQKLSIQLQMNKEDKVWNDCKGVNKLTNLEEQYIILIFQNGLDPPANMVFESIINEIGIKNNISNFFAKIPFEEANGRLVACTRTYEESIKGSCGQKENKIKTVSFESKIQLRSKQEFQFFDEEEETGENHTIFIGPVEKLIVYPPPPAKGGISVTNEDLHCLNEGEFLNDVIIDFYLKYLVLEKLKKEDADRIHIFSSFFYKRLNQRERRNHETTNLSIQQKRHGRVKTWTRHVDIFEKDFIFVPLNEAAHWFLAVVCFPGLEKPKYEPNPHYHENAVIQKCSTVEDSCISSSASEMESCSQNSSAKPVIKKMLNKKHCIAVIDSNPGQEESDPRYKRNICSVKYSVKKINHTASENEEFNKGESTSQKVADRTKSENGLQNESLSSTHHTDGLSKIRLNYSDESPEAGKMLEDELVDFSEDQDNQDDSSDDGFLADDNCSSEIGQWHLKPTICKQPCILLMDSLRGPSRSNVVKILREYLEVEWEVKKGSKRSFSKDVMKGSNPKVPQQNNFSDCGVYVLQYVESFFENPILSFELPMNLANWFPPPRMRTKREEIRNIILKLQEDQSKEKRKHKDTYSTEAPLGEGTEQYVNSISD

[9] = target: T5, Sentrin-specific protease 8 (Homo sapiens, UniProt Q96LD8); test: inhibition of human SENP8 cleavage activity – biochemical, luminescence, SAR follow-up (AID 504501); assay type: functional
T5 sequence (Q96LD8 whole entry): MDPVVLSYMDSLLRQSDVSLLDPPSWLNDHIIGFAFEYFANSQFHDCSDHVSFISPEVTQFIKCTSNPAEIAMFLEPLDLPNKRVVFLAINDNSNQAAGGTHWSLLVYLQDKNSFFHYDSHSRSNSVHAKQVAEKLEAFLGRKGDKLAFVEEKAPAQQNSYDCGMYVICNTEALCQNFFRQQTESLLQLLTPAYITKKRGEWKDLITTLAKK

[10] = target: T2, Sentrin-specific protease 7; assay type: functional
[11] = target: T4, Sentrin-specific protease 6; assay type: functional
[12] = target: T5, Sentrin-specific protease 8; assay type: functional
[13] = non-specific 3'UTR reporter inhibition in Clone20-Shn3RL – cell-based, Renilla luciferase, cherry-picked, counter-screen for Shn3 inhibitor project, dose response (AID 624133); assay type: functional
Beta Lactamase = Beta Lactamase (Pseudomonas aeruginosa, UniProt Q932Y6); test: BLA reporter interference, concentration series – BLA reporter cells, FRET fluorescence, artefact control for NOD2-RIPK2 interaction inhibitor project, dose response (AID 651552); assay type: functional, cell-based
[14] = loss of viability in HepG2 cells – cell-based, CellTiter-Glo, cherry-picked, cytotoxicity control for Shn3 inhibitor project, dose response (AID 624134); assay type: functional
[15] = Fluorescence-based cell-based high throughput dose response assay for inhibitors of the interaction of nucleotide-binding oligomerization domain containing 2 (NOD2) and the receptor-interacting serine-threonine kinase 2 (RIPK2).; assay type: functional; conditions: Homo sapiens
[16] = reduction of Shn3 3'UTR-driven luciferase in osteoblasts – cell-based, Clone20 osteoblasts, firefly luciferase, cherry-picked, dose response (AID 624132); assay type: functional;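 note: firefly luciferase luminescence from reporter carrying the Shn3 3'UTR in osteoblasts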
[17] = target: Nuclear receptor subfamily 5 group A member 2 (Homo sapiens, UniProt O00482); assay type: functional, cell-based;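 note: HEK293T cells transfected with LRH-1 and a StAR promoter luciferase reporter; potency for inhibitors that lower LRH-1 driven reporter light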
[18] = nonselective StAR promoter luciferase inhibitors – cell-based, luminescence, luciferase reporter, counter-screen for LRH-1 inverse agonist project, dose response (AID 651969); assay type: functional
Steroidogenic factor 1 = Steroidogenic factor 1 (Homo sapiens, UniProt Q13285); test: Counterscreen for inverse agonists of the liver receptor homolog-1 (LRH-1; NR5A2): Luminescence-based cell-based high throughput dose response assay to identify inverse agonists of the Steroidogenic Factor 1 Nuclear Receptor (SF1; NR5A1).; assay type: functional
[19] = target: Low molecular weight phosphotyrosine protein phosphatase (Homo sapiens, UniProt P24666); assay type: functional; conditions: read-out: IC50_Mean;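 note: Dose-response confirmation assay measuring inhibition of LMPTP enzyme activity by fluorescence intensity read-out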
Protein Tat = target: T6, Protein Tat (Human immunodeficiency virus type 1 group M subtype B (isolate HXB2)(HIV-1), UniProt P04608); assay type: functional;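 note: tat binding to TAR RNA read out by fluorescence polarization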
T6 sequence (P04608 whole entry): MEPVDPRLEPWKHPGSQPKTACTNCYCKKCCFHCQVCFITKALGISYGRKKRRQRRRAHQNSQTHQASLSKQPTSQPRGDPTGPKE

[20] = viability loss in THP-1 monocytes – THP-1 cells, cytotoxicity control for Vif-APOBEC3G degradation inhibitor project, dose response (AID 1117359); assay type: functional; conditions: THP-1
Estrogen receptor beta = Estrogen receptor beta (Homo sapiens, UniProt Q92731); test: blockers of SRC-3 recruitment to ERβ – biochemical, ELISA, streptavidin-HRP readout, orthogonal assay, confirmation (AID 1060)
Estrogen receptor beta, sequence (Q92731 whole entry): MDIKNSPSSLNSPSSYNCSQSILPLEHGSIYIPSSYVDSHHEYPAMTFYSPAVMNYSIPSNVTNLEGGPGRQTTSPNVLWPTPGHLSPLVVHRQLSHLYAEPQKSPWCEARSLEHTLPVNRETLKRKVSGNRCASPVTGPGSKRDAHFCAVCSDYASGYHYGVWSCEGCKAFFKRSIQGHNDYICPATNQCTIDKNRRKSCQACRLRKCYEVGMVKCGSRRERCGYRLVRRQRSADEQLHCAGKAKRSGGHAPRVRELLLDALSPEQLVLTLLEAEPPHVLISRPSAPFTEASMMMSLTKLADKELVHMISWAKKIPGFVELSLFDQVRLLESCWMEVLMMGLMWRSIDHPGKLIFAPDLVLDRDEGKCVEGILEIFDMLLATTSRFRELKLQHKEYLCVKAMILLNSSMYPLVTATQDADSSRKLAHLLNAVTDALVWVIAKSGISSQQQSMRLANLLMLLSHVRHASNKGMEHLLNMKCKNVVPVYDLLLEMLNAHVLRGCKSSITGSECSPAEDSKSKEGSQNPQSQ

Steroidogenic factor 1, sequence (Q13285 whole entry): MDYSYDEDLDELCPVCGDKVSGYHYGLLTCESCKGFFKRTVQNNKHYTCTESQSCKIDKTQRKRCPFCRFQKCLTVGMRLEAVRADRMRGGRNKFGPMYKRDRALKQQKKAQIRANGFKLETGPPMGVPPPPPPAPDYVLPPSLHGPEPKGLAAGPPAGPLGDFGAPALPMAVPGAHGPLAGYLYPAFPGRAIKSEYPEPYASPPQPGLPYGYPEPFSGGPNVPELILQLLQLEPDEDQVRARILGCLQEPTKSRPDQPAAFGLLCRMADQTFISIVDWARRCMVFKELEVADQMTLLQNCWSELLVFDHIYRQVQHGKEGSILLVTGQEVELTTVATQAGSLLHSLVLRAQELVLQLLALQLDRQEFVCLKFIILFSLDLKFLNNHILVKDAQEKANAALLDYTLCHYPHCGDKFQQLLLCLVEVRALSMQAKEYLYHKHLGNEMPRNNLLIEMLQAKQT
Nuclear receptor subfamily 5 group A member 2, sequence (O00482 whole entry): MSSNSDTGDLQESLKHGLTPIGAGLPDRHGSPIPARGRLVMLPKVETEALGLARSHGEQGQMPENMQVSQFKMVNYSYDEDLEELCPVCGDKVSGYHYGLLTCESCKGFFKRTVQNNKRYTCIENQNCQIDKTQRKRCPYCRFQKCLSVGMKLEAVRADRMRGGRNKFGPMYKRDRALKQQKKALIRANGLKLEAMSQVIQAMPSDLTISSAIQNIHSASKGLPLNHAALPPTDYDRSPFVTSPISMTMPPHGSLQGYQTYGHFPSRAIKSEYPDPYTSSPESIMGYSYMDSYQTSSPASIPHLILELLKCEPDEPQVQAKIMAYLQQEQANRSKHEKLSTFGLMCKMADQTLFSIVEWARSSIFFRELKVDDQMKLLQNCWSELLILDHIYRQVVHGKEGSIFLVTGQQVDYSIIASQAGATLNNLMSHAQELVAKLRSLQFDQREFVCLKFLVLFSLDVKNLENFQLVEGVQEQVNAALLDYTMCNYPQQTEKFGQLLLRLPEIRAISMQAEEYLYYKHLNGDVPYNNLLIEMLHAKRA
Low molecular weight phosphotyrosine protein phosphatase, sequence (P24666 whole entry): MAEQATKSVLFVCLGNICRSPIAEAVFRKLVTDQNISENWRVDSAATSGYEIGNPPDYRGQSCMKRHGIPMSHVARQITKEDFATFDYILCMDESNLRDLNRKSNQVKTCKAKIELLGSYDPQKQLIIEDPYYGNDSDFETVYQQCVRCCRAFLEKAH
Beta Lactamase, sequence (Q932Y6 whole entry): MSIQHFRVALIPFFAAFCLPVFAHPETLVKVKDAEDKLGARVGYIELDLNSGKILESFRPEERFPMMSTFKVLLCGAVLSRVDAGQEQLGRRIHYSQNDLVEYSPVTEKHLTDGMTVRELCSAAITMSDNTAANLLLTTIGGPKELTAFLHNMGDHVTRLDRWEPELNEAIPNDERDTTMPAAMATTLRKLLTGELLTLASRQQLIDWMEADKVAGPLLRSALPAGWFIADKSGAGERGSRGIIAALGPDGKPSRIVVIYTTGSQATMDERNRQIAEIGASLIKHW

Cc1nc2ccccc2c(=O)n1-c1ccc(C(=O)O)cc1
EC50 (HEK293 [1]): > 55.9 µM (inactive)
EC50 (Insulin-degrading enzyme [2]): > 54.7 µM (inactive)
IC50 (HEK293 [3]): > 89.2 µM (inactive)
EC50 (Insulin-degrading enzyme [4]): > 54.7 µM (inactive)

CC(=O)Nc1ccc(-c2nc3cc(Cl)ccc3o2)cc1
IC50 [5]: 2.7 µM (active)
IC50 (Caspase-3 [6]): 10.4 µM (active)
IC50 (Caspase-3 [7]): 54.9 µM (active)
IC50 [8]: > 99 µM (inactive)
IC50 [9]: > 99 µM (inactive)
IC50 [10]: 2.77 µM (active)
IC50 [11]: > 100 µM (inactive)
IC50 [12]: > 100 µM (inactive)

C=C1C(=O)[C@]23C[C@H]1CCC2[C@@]1(C)C(C[C@@H]3O)[C@](C)(C(=O)OC)CC[C@@H]1OC(C)=O (stereo partly drawn)
AC50 [13]: 3.51 µM (active)
IC50 (Beta Lactamase): 18 µM (inactive)
AC50 [14]: 7.22 µM (active)
IC50 [15]: 0.917 µM (active)
AC50 [16]: 2.14 µM (active)

O=C(NN=c1c(=O)c2ccccc2c1=O)c1ccncc1
IC50 [5]: 17.8 µM (active)
IC50 (Caspase-3 [6]): 76.5 µM (active)
IC50 [8]: 9.3 µM (active)
IC50 [9]: 33.3 µM (active)

O=C(COc1ccc(S(=O)(=O)N2CCCC2)cc1Cl)Nc1ccc2c(c1)OCO2
IC50 [17]: 35.9 µM (inactive)
IC50 [18]: 35.9 µM (inactive)
IC50 (Steroidogenic factor 1): 9.54 µM (active)

COc1ccccc1CNc1nc(Nc2cccc(-c3cnco3)c2)c2sccc2n1
AC50 [13]: 9.22 µM (active)
AC50 [14]: 45.6 µM (active)
AC50 [16]: 5.61 µM (active)
IC50 [19]: 42.4 µM (inactive)

COc1ccc(NC(=O)COC(=O)Cc2c[nH]c3ccccc23)cc1Cl
IC50 [17]: 25.4 µM (inactive)
IC50 [18]: 35.9 µM (inactive)
IC50 (Steroidogenic factor 1): 17.6 µM (inactive)

COc1cc(C2Nc3cccc4cccc(c34)N2)cc(OC)c1O
EC50 (HEK293 [1]): > 55.9 µM (inactive)
EC50 (Insulin-degrading enzyme [2]): > 54.7 µM (inactive)
IC50 (HEK293 [3]): > 89.2 µM (inactive)
IC50 (Protein Tat): 13.1 µM (inconclusive)
EC50 (Insulin-degrading enzyme [4]): > 54.7 µM (inactive)
CC50 [20]: 2.1 µM (active)
IC50 (Estrogen receptor beta): 5.04 µM (not active)
